Measured values published in US20110195845A1, “Constructs for Expressing Herbicide Tolerance Genes, Related Plants, and Related Trait Combinations” (Dow AgroSciences LLC, priority 2008, published 2011).

Legend:
[1] = test system: Escherichia coli BL21-Star (DE3) with AtUbi10 promoter//DSM-2 (v2) (3778); assay: Plant promoter driven complementation on glufosinate, plasmid 3778; assay type: cell-based; parameters: bacterial growth on minimal media: key: ++++ = Heavy Lawn Growth; +++ = Lawn Growth; ++ = Lots of Distinct Colonies; + = Scattered Colony Growth; settings: for bacterial growth on minimal media: 48 hrs @37 C
Experimental: Plasmid constructs in which the DSM-2 (v2) and PAT gene coding sequences were expressed, under either the viral promoters CsVMV or the plant promoter AtUbi10, were assayed for complementation on minimal media containing glufosinate. The plasmids 3778 (Rb7 MARv3//AtUbi10 promoter//DSM-2 (v2)//Atu Orf 1 3′UTR), 3779 (Rb7 MARv3//AtUbi10 promoter//PAT//Atu Orf 1 3′UTR), 3264 (CsVMV promoter//DSM-2//Atu Orf 24 3′UTR), 3037 (CsVMV promoter//PAT//Atu Orf 25/26 3′UTR), and 770 (control plasmid containing CsVMV promoter//GUS v3//Atu Orf 24 3′UTR) were transformed into Escherichia coli BL21-Star (DE3) and grown up in complex media. Five microliters of the cultures were plated on minimal media containing increasing concentrations of Glufosinate and incubated at 37° C. for 48 hours.

Wildtype Arabidopsis = assay: Arabidopsis response to glufosinate applied postemergence; assay type: in vivo, Arabidopsis thaliana; settings: for % Injury Ave / individuals with % Injury 20-40% / individuals with % Injury <20% / individuals with % Injury >40%: 2 WAT
Experimental: Seven days after planting (DAP) and again 11 DAP, T1 plants (cotyledon and 2-4-1f stage, respectively) were sprayed with a 0.016% solution of 2,4-D herbicide (456 g ae/L 2,4-D Amine 4, Dow AgroSciences LLC, Indianapolis, Ind.) at a spray volume of 10 ml/tray (703 L/ha) using a DeVilbiss compressed air spray tip to deliver an effective rate of 50 g ae/ha 2,4-D DMA per application. Survivors (plants actively growing) were identified 4-7 days after the final spraying and transplanted individually into 3-inch pots prepared with potting media (Metro Mix 360). Transplanted plants were covered with humidity domes for 3-4 days and placed in a 22° C. growth chamber as before or moved to directly to the greenhouse. Domes were subsequently removed and plants reared in the greenhouse (22±5° C., 50±30% RH, 14 h light:10 dark, minimum 500 μE/m^2s^1 natural+supplemental light) at least 1 day prior to testing for the ability of DSM-2 (v2) to provide glufosinate herbicide resistance.
T1 plants were then randomly assigned to various rates of glufosinate. For Arabidopsis 140 g ai/ha glufosinate is an effective dose to distinguish sensitive plants from ones with meaningful levels of resistance. Elevated rates were also applied to determine relative levels of resistance (280, 560, or 1120 g ai/ha).
All glufosinate herbicide applications were applied by track sprayer in a 187 L/ha spray volume. The commercial Liberty™ formulation (200 g ai/L, Bayer Crop Science, Research Triangle Park, N.C.).
The first Arabidopsis transformations were conducted using DSM-2 (v2) (plant optimized gene). T1 transformants were first selected from the background of untransformed seed using a 2,4-D DMA selection scheme. Over 100,000 T1 seed were screened and 260 2,4-D resistant plants (AAD-12 gene) were identified, equating to a transformation/selection frequency of 0.26% which is slightly higher than the normal range of selection frequency of constructs where AAD-12+2,4-D are used for selection. T1 plants selected above were subsequently transplanted to individual pots and sprayed with various rates of commercial glufosinate herbicide. Table 10 compares the response of DSM-2 (v2) and control genes to impart glufosinate resistance to Arabidopsis T1 transformants. Response is presented in terms of % visual injury 2 WAT. […] Since each T1 is an independent transformation event, one can expect significant variation of individual T1 responses within a given rate. An arithmetic mean and standard deviation is presented for each treatment. Untransformed-wildtype Arabidopsis served as a glufosinate sensitive control. The DSM-2 (v2) gene imparted herbicide resistance to individual T1 Arabidopsis plants. Within a given treatment, the level of plant response varied greatly and can be attributed to the fact each plant represents an independent transformation event. Of important note, at above 140 g ai/ha glufosinate, there were individuals that were unaffected while some were severely affected.

Wildtype corn = assay: Leaf paint with glufosinate in corn; assay type: in vivo; settings: for % Injury: 2 WAT
Experimental: (§1) T0 DSM-2 (v2) plants were painted with a rundown of glufosinate herbicide. Four siblings from each of 15 T0 events were tested, and 4 leaves on each individual plant received a rundown of glufosinate at approximately V8 stage. Rundown treatments were randomized for each rate allowing for variation of treatment location on individual leaves. For corn, 0.25% v/v glufosinate is the minimum effective dose to distinguish sensitive plants from ones with meaningful levels of resistance. Elevated rates were also applied to determine relative levels of resistance (0.5%, 1.0%, and 2.0% v/v). Glufosinate treatments were applied using cotton tipped applicators to a treatment area of approximately 2.5 cm in diameter.
(§2) Table 11 compares the response of DSM-2 (v2) and control genes to impart glufosinate resistance to corn T0 transformants. Response is presented in terms of % visual injury 2 WAT. […] Since each T0 is an independent transformation event, one can expect significant variation of individual T0 responses within a given rate. An arithmetic mean and standard deviation is presented for each treatment. Untransformed wildtype corn served as a glufosinate sensitive control. The DSM-2 (v2) gene imparted herbicide resistance to individual T0 corn plants. Within a given treatment, the level of plant response varied greatly and can be attributed to the fact each plant represents an independent transformation event.

[2] = test system: T0 DSM-2 (v2)-transformed corn plants; assay: Leaf paint with glufosinate in T0 corn; assay type: in vivo; settings: for % Injury: 2 WAT
Experimental: as §1, §2

[3] = test system: T0 PAT-transformed corn plants; assay: Leaf paint with glufosinate in T0 corn; assay type: in vivo; settings: 2 WAT
Experimental: as §1, §2

[4] = 140 g ai/ha glufosinate postemergence
[5] = 280 g ai/ha glufosinate postemergence
[6] = 560 g ai/ha glufosinate postemergence
[7] = 1120 g ai/ha glufosinate postemergence
[8] = 0.25% v/v glufosinate leaf paint
[9] = 0.5% v/v glufosinate leaf paint

CP(=O)(O)CCC(N)C(=O)O (stereo not shown) [glufosinate]
bacterial growth on minimal media ([1]; 250 μg/ml BASTA): ++++ | bacterial growth on minimal media ([1]; 500 μg/ml BASTA): +++ | bacterial growth on minimal media ([1]; 1000 μg/ml BASTA): +++ | bacterial growth on minimal media ([1]; 2000 μg/ml BASTA): ++ | bacterial growth on minimal media ([1]; 4000 μg/ml BASTA): ++ | concentration in minimal media to which promoter-driven DSM-2 provided resistance ([1]; At Ubi10 promoter, minimal media): 200 µg/mL | % Injury Ave (Wildtype Arabidopsis; [4]): 98.0% | individuals with % Injury 20-40% (Wildtype Arabidopsis; [4]): 0 | individuals with % Injury <20% (Wildtype Arabidopsis; [4]): 0 | individuals with % Injury >40% (Wildtype Arabidopsis; [4]): 10 | % Injury Ave (Wildtype Arabidopsis; [5]): 100.0% | individuals with % Injury 20-40% (Wildtype Arabidopsis; [5]): 0 | individuals with % Injury <20% (Wildtype Arabidopsis; [5]): 0 | individuals with % Injury >40% (Wildtype Arabidopsis; [5]): 10 | % Injury Ave (Wildtype Arabidopsis; [6]): 100.0% | individuals with % Injury 20-40% (Wildtype Arabidopsis; [6]): 0 | individuals with % Injury <20% (Wildtype Arabidopsis; [6]): 0 | individuals with % Injury >40% (Wildtype Arabidopsis; [6]): 10 | % Injury Ave (Wildtype Arabidopsis; [7]): 100.0% | individuals with % Injury 20-40% (Wildtype Arabidopsis; [7]): 0 | individuals with % Injury <20% (Wildtype Arabidopsis; [7]): 0 | individuals with % Injury >40% (Wildtype Arabidopsis; [7]): 10 | effective dose to distinguish sensitive plants from ones with meaningful levels of resistance (Wildtype Arabidopsis; Arabidopsis): 140 g ai/ha | % Injury (Wildtype corn; [8]): 33% | % Injury (Wildtype corn; [9]): 50% | % Injury (Wildtype corn; 1% v/v glufosinate leaf paint): 84% | % Injury (Wildtype corn; 2% v/v glufosinate leaf paint): 90% | minimum effective dose to distinguish sensitive plants from ones with meaningful levels of resistance (Wildtype corn; corn, leaf paint): 0.25 % v/v | % Injury [2, 8]: 0% | % Injury [2, 9]: 1% | % Injury ([2]; 1% v/v glufosinate leaf paint): 2% | % Injury ([2]; 2% v/v glufosinate leaf paint): 4% | performance compared to PAT-transformed plants ([2]; up to 2% v/v glufosinate): performs better overall than PAT-transformed plants | % Injury [3, 8]: 1% | % Injury [3, 9]: 3% | % Injury ([3]; 1% v/v glufosinate leaf paint): 6% | % Injury ([3]; 2% v/v glufosinate leaf paint): 9%
